What all share (type): cell-based, Human
In test [1] the test system is NCI-N87 cells. Kind of test: Inhibitory effect of compounds on NCI-N87 cell proliferation. Conditions: Homo sapiens, NCI-N87, 72 h, read-out: IC50, inhibitory activity on NCI-N87 cell proliferation, NCI-N87 human gastric cancer cells, 72 h incubation, Cell Counting-Lite 2.0. In a few lines:
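Adherent NCI-N87 cells were exposed to compound dilutions for 72 h. Viability measured by Cell Counting-Lite 2.0 luminescence, with inhibition calculated against vehicle and cell-free background RLU. IC50 from four-parameter fit.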

The test system of test [2] is A549 cells. Kind of test: Inhibitory effect of compounds on A549 cell proliferation. The note with it: Homo sapiens, A549, 72 h, read-out: IC50, inhibitory activity on A549 cell proliferation. As for the experimental part:
(1) Cell plating: First, tumor cells A549 were cultured in the corresponding medium, then digested with trypsin, centrifuged and resuspended, and counted, and the cells were adjusted to an appropriate concentration for plating.
(§1) Co-incubation of the compound of the present disclosure and tumor cells: after the cells adhered to the wall, the medium was removed, and the diluted bioactive molecule (the compound of the present disclosure) was added to the wells of the above plate, and incubated for 72 h.
(§2) In vitro cell activity detection: After the incubation, 50 μL of Cell Counting-Lite™ 2.0 reagent (Vazyme/Novazyme) was added to each well, shaken and mixed well in the dark, reacted for 10 minutes, and then the detection was carried out with a microplate reader (manufacturer: BMG, Model: PHERAStar-FS) for reading. The background RLU was obtained by using cell-free medium (with Cell Counting-Lite™), and the vehicle RLU was obtained by using cell-containing medium (with Cell Counting-Lite™). Cell inhibition rate=1−(sample RLU−background RLU)/(solvent RLU−background RLU)×100%. According to the four-parameter model fitting curve, the half maximal inhibitory concentration (IC50) of the compound was calculated, and the detection results were shown in Table 4.

For test [3], the system named is HT29 cells. Kind of test: Inhibitory effect of compounds on HT29 cell proliferation. Conditions: Homo sapiens, HT-29, 72 h, read-out: IC50, inhibitory activity on HT29 cell proliferation. The procedure, abridged: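 Adherent HT29 cells incubated with diluted compounds for 72 h; viability read by luminescence (Cell Counting-Lite 2.0, 10 min). Inhibition calculated against cell-free background and vehicle-treated cells; IC50 from four-parameter curve fit.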

For test [4], the system named is Hela cells. Kind of test: Inhibitory effect of compounds on Hela cell proliferation. Conditions: Homo sapiens, HeLa, 72 h, read-out: IC50, inhibitory activity on Hela cell proliferation. As for the experimental part:
(1) Cell plating: First, tumor cells Hela were cultured in corresponding medium, then digested with trypsin, centrifuged, resuspended, and counted, and the cells were adjusted to an appropriate concentration for plating.
as §1
as §2, with “viability” for “activity”, “14.” for “4.”

Test [5] deals with HCC70 cells. Kind of test: Inhibitory effect of compounds on HCC70 cell proliferation. Conditions: Homo sapiens, HCC70, 72 h, read-out: IC50, inhibitory activity on HCC70 cell proliferation. As for the experimental part:
(1) Cell plating: First, tumor cells HCC70 were cultured in corresponding medium, then digested with trypsin, centrifuged, resuspended, and counted, and the cells were adjusted to an appropriate concentration for plating.
as §1
as §2, with “viability” for “activity”, “16.” for “4.”

Test [6] has as its system NCI-H358 cells. The experiment in a line: Inhibitory effect of compounds on NCI-H358 cell proliferation. Conditions: Homo sapiens, NCI-H358, 72 h, read-out: IC50, inhibitory activity on NCI-H358 cell proliferation, NCI-H358 human non-small cell lung cancer cells, 72 h incubation, Cell Counting-Lite 2.0. The procedure, abridged: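 Adherent NCI-H358 cells were exposed to compound for 72 h, then viability was read by luminescence (Cell Counting-Lite 2.0). Inhibition calculated from RLU relative to cell-free background and vehicle wells; IC50 from a four-parameter fit.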

Test [7] deals with SKOV-3 cells. The experiment in a line: Inhibitory effect of compounds on SKOV-3 cell proliferation. The note with it: Homo sapiens, SK-OV-3, 72 h, read-out: IC50, inhibitory activity on SKOV-3 cell proliferation. As for the experimental part: (1) Cell plating: First, tumor cells SKOV-3 were cultured in corresponding medium, then digested with trypsin, centrifuged, resuspended, and counted, and the cells were adjusted to an appropriate concentration for plating.
as §1
as §2, with “viability” for “activity”, “8.” for “4.”

The results in this text go back to US20250346606A1, “CAMPTOTHECIN COMPOUND, PREPARATION METHOD THEREFOR, AND APPLICATION THEREOF” (SICHUAN KELUN-BIOTECH BIOPHARMACEUTICAL CO., LTD., priority 2021, published 2025).

Each structure is given as a SMILES string.

Turning to `CC[C@@]1(O)C(=O)OCc2c1cc1n(c2=O)Cc2c-1nc1cc(Cl)c(C)c3c1c2[C@@H](NC(=O)C1(O)CC1)CC3` [Example 7 (2-20-A), N-((1S,9S)-5-chloro-9-ethyl-9-hydroxy-4-methyl-10,13-dioxo-2,3,9,10,13,15-hexahydro-1H,12H-benzo[de]pyrano[3′,4′:6,7]indolizino[1,2-b]quinolin-1-yl)-1-hydroxycyclopropane-1-carboxamide], the IC50 was 4.54 nM in test [1]; 8.14 nM in test [2]; 1.29 nM in test [3]; 11.2 nM in test [4]; 105 nM in test [5]; 18.6 nM in test [6]. For the same compound, the IC50 in test [7] turned out to be 6.79 nM.
